Data reported in patent US10683293B2, “Optionally fused heterocyclyl-substituted derivatives of pyrimidine useful for the treatment of inflammatory, metabolic, oncologic and autoimmune diseases” (NUEVOLUTION A/S, priority 2014, dated 2020).

Key:
[1] = target: T1, human RORγt (Ligand Binding Domain) (Homo sapiens, UniProt P51449); experiment: Fluorescence Polarization (FP) Assay; conditions: 100 nM human RORγt LBD, 25 nM TAMRA probe, values are activity range bounds
T1 construct: purchased Crelux (Planegg, Germany) batch no PC5032-1
T1 sequence (P51449 269-508 limits assumed): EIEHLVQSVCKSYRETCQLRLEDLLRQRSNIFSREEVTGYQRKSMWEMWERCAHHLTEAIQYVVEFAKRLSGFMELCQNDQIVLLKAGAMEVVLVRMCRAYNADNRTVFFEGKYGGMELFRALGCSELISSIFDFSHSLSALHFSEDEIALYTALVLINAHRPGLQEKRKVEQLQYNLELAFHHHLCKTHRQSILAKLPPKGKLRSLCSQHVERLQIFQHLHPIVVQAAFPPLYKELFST
How it was run: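 In vitro fluorescence polarization binding assay on the RORγt ligand-binding pocket. A TAMRA-labelled RORγt ligand probe (MW 910 g/mol) was used, with DMSO as negative control.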

[2] = target: T2, ligand binding domain of human RORγ (Homo sapiens, UniProt P51449); experiment: RORγ Reporter Assay (Gal4); format: cell-based
T2 construct: host or cells: HEK293t
T2 sequence (P51449 269-508 limits assumed): T1 sequence (P51449 269-508 limits assumed)
How it was run: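 HEK293t cells expressing Gal4 DBD–human RORγ LBD hybrid with Gal4-UAS firefly luciferase reporter; compounds at final 1,000 nM and 100 nM (0.1% DMSO), triplicate, medium with 10% charcoal-stripped FBS, 24 h at 37 °C. Luminescence read; percent reduction of RORγ activity calculated versus vehicle-only wells.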

[3] = test system: female C57BL/6 mice; experiment: Experimental Autoimmune Encephalomyelitis (EAE) Study; format: in vivo, mouse; conditions: 30 mg/kg, orally twice daily, from day of EAE induction, 25 days
[4] = test system: male DBA/1J mice; experiment: Collagen-Induced Arthritis (CIA) Study; format: in vivo, mouse; conditions: 30 mg/kg, orally twice daily, therapeutic setting (from day 27 until day 41)
Excerpt: Compounds disclosed herein have also been evaluated in two different mouse in vivo disease models: Experimental Autoimmune Encephalomyelitis (EAE) model (an animal model for multiple sclerosis), and Collagen-induced Arthritis (CIA) model (an animal model for rheumatoid arthritis).
Collagen-Induced Arthritis (CIA) Study
Collagen-induced arthritis is an animal model of rheumatoid arthritis used to evaluate the efficacy of test compounds. CIA was induced at Washington Biotechnology Inc. (Baltimore) in male DBA/1J mice (Jackson Laboratories) by subcutaneous injection at the base of the tail with 50 μl of a bovine collagen/complete Freund's adjuvant emulsion. After 21 days, the mice were further boosted by a further subcutaneous injection of 50 μl of a collagen/incomplete Freund's adjuvant emulsion. For treatment, compound or vehicle (2% DMSO, 10% HP-β-CD in MilliQ water) was given orally twice daily at various doses selected from 3, 10, 30 mg/kg, beginning at the day of CIA induction (Prophylactic setting), or after disease initiation (at day 27, therapeutic setting). Treatment lasted until day 41, and the animals were scored three times weekly. Each paw was scored and the sum of all four scores was recorded as the Arthritic Index (AI). […] The Arthritis Index for each treatment can be expressed as the mean score for each treatment group+/−S.E.M.

CS(=O)(=O)N1CCC(CNc2ncnc(N(Cc3ccc(C(F)(F)F)cc3)C3CC3)c2F)CC1 [Example A7, N4-cyclopropyl-5-fluoro-N6-[(1-methylsulfonyl-4-piperidyl)methyl]-N4-[[4-(trifluoromethyl)phenyl]methyl] pyrimidine-4,6-diamine]
IC50 [1]: < 500 nM
inhibition at 1 µM ([2]; HEK-293T, 1 μM test compound, HEK293t RORγ reporter cells, 24 hour, read-out: Gal4 activity range @ 1 μM (% inhibition)): > 80%
Gal4 activity range @ 0.1 μM (% inhibition) ([2]; RORγ Reporter Assay (Gal4), HEK293t reporter cells, compound at 0.1 μM, values are activity range bounds): >80 % inhibition
EAE clinical score [3]: significantly lower the clinical score
onset of EAE [3]: delay onset
disease severity (CIA, Arthritic Index) [4]: significantly reduce disease severity
rate of disease development (CIA) [4]: decrease rate of disease development
